Patent US9227977B2, “Phosphoinositide 3-kinase inhibitors” (RESPIVERT LTD., priority 2013, dated 2016)
Read-outs that look alike come from different tables or passages of the source.

How the values were obtained:
[1] = tested on: LPS-induced airway neutrophilia in mice; assay: LPS-induced airway neutrophil accumulation in mice; format: in vivo, mouse; settings: i-t; for Neutrophil numbers in BALF: mean ± SEM
Method: Non-fasted BALB/c mice (6-8 weeks old) were dosed with vehicle or with test compound by intra-tracheal administration (dose volume 20 μL) at time points T=−2 hr, −8 hr, or −12 hr with respect to the start of LPS treatment. The LPS was prepared in a solution of 0.5 mg/mL and aerosolised using a De Vibliss ultrasonic nebuliser 2000 (7 mL during 30 min exposure). At eight hr after LPS challenge, the trachea was cannulated and bronchoalveolar lavage fluid (BALF) extracted by infusing and then withdrawing PBS (1 mL) into the lungs via the tracheal catheter. This procedure was repeated to give a yield of approximately 2 mL lavage fluid. Total cell numbers in the BALF samples were measured using a haemocytometer. Cytospin smears of the BALF samples were prepared by centrifugation at 1200 rpm for 2 min at RT and stained using a DiffQuik stain system (Dade Behring) for differential cell counts. Cells were counted using oil immersion microscopy. Data are expressed as neutrophil number of cells per mL of BALF (mean±S.E.M).

d-U937 cells = assay: MTT assay, cell viability; format: cell-based, human
Method: PMA-differentiated U937 cells were pre-incubated with test compound (10 μg/mL) or vehicle for 4 hr in 5% FCS or 10% FCS for 24 hr. The supernatant was replaced with new media (200 μL) and MTT stock solution (10 μL, 5 mg/mL) was added to each well. After 1 hr incubation, the media were removed, 200 μL of DMSO was added to each well and the plates were shaken lightly for 1 hr prior to reading the absorbance at 550 nm. The percentage loss of cell viability was calculated for each well relative to vehicle (0.5% DMSO)-treatment.

PI3K δ = PI3K δ (Homo sapiens (Human), UniProt O00329); assay: PI3K enzyme inhibition assay (HTRF TR-FRET); format: biochemical
PI3K δ, sequence (O00329 whole entry, species assumed): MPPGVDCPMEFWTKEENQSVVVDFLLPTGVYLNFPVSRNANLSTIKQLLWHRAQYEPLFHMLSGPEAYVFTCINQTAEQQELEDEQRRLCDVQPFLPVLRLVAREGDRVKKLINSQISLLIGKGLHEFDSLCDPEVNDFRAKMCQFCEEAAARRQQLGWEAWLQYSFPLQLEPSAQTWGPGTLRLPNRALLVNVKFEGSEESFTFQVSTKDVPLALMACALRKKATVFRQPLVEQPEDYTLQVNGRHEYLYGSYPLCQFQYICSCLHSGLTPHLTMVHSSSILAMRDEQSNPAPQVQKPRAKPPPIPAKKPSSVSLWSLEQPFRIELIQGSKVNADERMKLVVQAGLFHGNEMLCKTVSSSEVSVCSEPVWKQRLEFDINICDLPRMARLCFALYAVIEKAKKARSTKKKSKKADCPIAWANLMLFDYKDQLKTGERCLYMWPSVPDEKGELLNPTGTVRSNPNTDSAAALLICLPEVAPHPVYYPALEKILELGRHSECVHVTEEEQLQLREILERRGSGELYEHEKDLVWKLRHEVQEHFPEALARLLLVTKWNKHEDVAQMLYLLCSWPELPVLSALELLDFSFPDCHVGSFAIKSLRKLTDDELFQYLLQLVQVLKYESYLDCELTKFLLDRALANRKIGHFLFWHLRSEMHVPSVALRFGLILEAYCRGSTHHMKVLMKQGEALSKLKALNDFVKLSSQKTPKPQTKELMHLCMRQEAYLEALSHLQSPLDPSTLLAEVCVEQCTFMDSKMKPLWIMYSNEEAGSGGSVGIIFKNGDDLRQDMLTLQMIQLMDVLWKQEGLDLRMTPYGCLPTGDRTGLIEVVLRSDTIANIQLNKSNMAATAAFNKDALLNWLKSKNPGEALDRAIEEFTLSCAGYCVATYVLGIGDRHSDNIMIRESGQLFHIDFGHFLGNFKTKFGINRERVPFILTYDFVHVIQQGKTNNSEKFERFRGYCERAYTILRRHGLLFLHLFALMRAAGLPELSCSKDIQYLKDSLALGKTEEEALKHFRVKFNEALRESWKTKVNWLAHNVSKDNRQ
PI3K δ, sequence (P27986 whole entry partner, species assumed): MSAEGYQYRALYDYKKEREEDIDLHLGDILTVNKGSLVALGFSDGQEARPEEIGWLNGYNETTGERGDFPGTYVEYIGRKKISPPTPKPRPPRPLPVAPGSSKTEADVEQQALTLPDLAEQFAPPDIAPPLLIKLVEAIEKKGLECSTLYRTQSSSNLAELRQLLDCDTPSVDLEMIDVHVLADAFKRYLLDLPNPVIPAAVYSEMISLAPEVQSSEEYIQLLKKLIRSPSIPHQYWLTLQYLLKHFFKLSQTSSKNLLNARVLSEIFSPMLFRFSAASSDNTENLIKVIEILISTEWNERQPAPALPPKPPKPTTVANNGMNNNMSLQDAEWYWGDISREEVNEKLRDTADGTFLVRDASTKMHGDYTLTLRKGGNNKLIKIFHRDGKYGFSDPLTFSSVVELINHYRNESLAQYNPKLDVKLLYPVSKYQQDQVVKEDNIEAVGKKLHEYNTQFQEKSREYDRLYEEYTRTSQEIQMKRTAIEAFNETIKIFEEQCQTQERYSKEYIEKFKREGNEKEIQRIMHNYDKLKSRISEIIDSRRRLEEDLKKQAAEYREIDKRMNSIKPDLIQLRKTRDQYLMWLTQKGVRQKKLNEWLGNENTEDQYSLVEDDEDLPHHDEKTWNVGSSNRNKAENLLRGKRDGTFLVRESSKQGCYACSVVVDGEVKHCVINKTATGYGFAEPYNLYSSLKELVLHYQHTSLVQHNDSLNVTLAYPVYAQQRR
Excerpt: (§1) The PI3K enzymes catalyse the phosphorylation of phosphatidylinositol 4,5-biphosphate (PIP2) to phosphatidylinositol 3,4,5-triphosphate (PIP3) in the presence of ATP and Mg^2+ ions. The PIP3 product can be detected by displacement of biotin-PIP3 from energy transfer complexes consisting of europium labelled anti-GST monoclonal antibody, a GST-tagged Pleckstrin homology (PH) domain, biotinylated PIP3 and streptavidin-allophycocyanin (APC) by the time-resolved fluorescence resonance energy transfer (TR-FRET) (HTRF®PI3K enzyme assay, Millipore). Excitation, at 330 nm, of europium in the complex results in an energy transfer to the APC and a fluorescent emission at 665 nm although europium itself emits at its characteristic wavelength of 620 nm. The PIP3 product formed by PI3K activity displaces biotin-PIP3 from the complex and results in a loss of energy transfer (decreasing signal).
(§2) The compound to be tested was added, at the desired final concentrations, to a mixture of PIP2 substrate and a recombinant PI3K enzyme (either α, β or δ isoforms, ex Millipore, or γ isoform [p110γ+p101 construct], ex United States Biological, Swampscott, Mass.) and the mixture incubated for 2 hr at RT. […] A stopping solution containing biotinylated PIP3 and the detection mix containing the GST tagged GRP1 pleckstrin homology (PH) domain and fluorophores were then added and the mixture was incubated at RT for 15-18 hr, prior to detection in a fluorescence microplate reader (Synergy 4, BioTek UK, Bedfordshire, UK).
(§3) The results were calculated according to the formula: APC signal (emission at 665 nm)/europium signal (emission at 620 nm)×10^4.

PI3K α = PI3K α (Homo sapiens (Human), UniProt P42336); assay: PI3K enzyme inhibition assay (HTRF TR-FRET); format: biochemical
PI3K α, sequence (P42336 whole entry, species assumed): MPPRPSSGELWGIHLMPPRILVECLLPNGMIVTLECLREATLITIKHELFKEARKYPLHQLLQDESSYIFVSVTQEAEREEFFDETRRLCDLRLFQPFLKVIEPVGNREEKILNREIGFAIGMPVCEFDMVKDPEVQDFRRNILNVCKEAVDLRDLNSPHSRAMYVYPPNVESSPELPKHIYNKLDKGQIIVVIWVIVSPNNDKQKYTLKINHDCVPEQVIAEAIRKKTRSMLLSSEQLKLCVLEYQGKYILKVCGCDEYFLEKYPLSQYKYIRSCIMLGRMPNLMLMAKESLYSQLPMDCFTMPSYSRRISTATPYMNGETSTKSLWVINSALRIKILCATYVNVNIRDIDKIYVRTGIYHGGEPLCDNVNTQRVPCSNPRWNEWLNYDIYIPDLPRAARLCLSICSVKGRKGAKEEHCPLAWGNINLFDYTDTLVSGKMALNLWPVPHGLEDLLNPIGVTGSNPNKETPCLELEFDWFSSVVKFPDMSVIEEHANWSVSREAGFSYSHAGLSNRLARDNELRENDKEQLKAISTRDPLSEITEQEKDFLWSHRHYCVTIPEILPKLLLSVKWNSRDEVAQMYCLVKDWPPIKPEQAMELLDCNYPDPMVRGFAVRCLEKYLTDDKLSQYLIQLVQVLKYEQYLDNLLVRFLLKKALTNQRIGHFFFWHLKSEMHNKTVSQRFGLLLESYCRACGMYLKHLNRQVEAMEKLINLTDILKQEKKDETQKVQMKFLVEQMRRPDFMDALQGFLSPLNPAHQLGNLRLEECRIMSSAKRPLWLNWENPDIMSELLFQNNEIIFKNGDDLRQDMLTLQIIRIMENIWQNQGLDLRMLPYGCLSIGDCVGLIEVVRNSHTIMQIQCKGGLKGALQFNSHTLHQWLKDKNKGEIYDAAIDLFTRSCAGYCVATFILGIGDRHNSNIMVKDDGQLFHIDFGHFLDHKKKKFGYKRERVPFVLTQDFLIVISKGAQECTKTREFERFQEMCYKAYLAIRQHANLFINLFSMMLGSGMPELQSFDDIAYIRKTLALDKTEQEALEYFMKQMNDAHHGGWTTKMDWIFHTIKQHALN
PI3K α, sequence (P27986 whole entry partner, species assumed): as the sequence (P27986 whole entry partner, species assumed) above
Excerpt: as §1, §2, §3

SMILES: COCCOCCOCC#Cc1cccc2nc(Cn3nc(-c4cc(O)cc(F)c4)c4c(N)ncnc43)n(Cc3ccccc3C(F)(F)F)c(=O)c12 [Compound (I), 2-((4-Amino-3-(3-fluoro-5-hydroxyphenyl)-1H-pyrazolo[3,4-d]pyrimidin-1-yl)methyl)-5-(3-(2-(2-methoxyethoxy)ethoxy)prop-1-yn-1-yl)-3-(2-(trifluoromethyl)benzyl)quinazolin-4(3H)-one]
- % inhibition of neutrophil numbers in BALF ([1]; 0.05 mg/mL, pre-dose 2 hr): 19%
- Neutrophil numbers in BALF ([1]; 0.05 mg/mL, pre-dose 2 hr): 13.8 ± 2.5 x10^5/mL
- % inhibition of neutrophil numbers in BALF ([1]; 0.2 mg/mL, pre-dose 2 hr): 53%
- Neutrophil numbers in BALF ([1]; 0.2 mg/mL, pre-dose 2 hr): 8.0 ± 1.4 x10^5/mL
- % inhibition of neutrophil numbers in BALF ([1]; 0.2 mg/mL, pre-dose 8 hr): 45%
- Neutrophil numbers in BALF ([1]; 0.2 mg/mL, pre-dose 8 hr): 9.4 ± 2.0 x10^5/mL
- % inhibition of neutrophil numbers in BALF ([1]; 0.2 mg/mL, pre-dose 12 h): 23%
- Neutrophil numbers in BALF ([1]; 0.2 mg/mL, pre-dose 12 h): 13.1 ± 2.5 x10^5/mL
- % inhibition of neutrophil numbers in BALF ([1]; 1.0 mg/mL, pre-dose 2 hr): 68%
- Neutrophil numbers in BALF ([1]; 1.0 mg/mL, pre-dose 2 hr): 5.5 ± 0.9 x10^5/mL
- effects on cell viability (in words) (d-U937 cells): No effects
- Cell Viability MTT Assay in d-U937 cells at 4 hr (d-U937 cells; 10 μg/mL, 4 hr): −ve (−ve indicates a value of <30% inhibition at 10 μg/mL)
- Cell Viability MTT Assay in d-U937 cells at 24 hr (d-U937 cells; 10 μg/mL, 24 hr): −ve (−ve indicates a value of <30% inhibition at 10 μg/mL)
- IC50 (PI3K δ; read-out: IC50 Values for PI3K inhibition at isozyme indicated, PI3K δ): 2.5 nM
- IC50 (PI3K δ; read-out: PI3 Kinase Inhibition IC50 value at state isozyme, δ): 2.5 nM
- inhibitory activity versus PI3K α in enzyme assays (in words) (PI3K α): no inhibitory activity
- IC50 (PI3K α; read-out: IC50 Values for PI3K inhibition at isozyme indicated, PI3K α): > 13900 nM
- IC50 (PI3K α; read-out: PI3 Kinase Inhibition IC50 value at state isozyme, α): > 13900 nM
